In PubChem BioAssay (NCI):
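Growth conditions: 96-well plates. Treatment: test compound, 48 hours, 5 concentrations. Analysis: linear interpolation between bracketing concentrations; unreached endpoints set to highest concentration. At the GI50, growth is halved. At the TGI there is no net growth.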

Key:
Assay in all cases: NCI-60 cell line screen, 48 h
786-0 renal = test system: 786-0 renal
A498 renal = test system: A498 renal
A549 NSCLC = test system: A549 NSCLC
ACHN renal = test system: ACHN renal
CCRF-CEM leukemia = test system: CCRF-CEM leukemia
COLO 205 colon = test system: COLO 205 colon
DLD-1 colon = test system: DLD-1 colon
DMS 114 small cell lung = test system: DMS 114 small cell lung
DMS 273 small cell lung = test system: DMS 273 small cell lung
EKVX NSCLC = test system: EKVX NSCLC
HCC-2998 colon = test system: HCC-2998 colon
HCT-116 colon = test system: HCT-116 colon
HCT-15 colon = test system: HCT-15 colon
HOP-18 NSCLC = test system: HOP-18 NSCLC
HOP-92 NSCLC = test system: HOP-92 NSCLC
HT29 colon = test system: HT29 colon
IGROV1 ovarian = test system: IGROV1 ovarian
K-562 leukemia = test system: K-562 leukemia
KM12 colon = test system: KM12 colon
KM20L2 colon = test system: KM20L2 colon
LXFL 529 NSCLC = test system: LXFL 529 NSCLC
M14 melanoma = test system: M14 melanoma
M19-MEL melanoma = test system: M19-MEL melanoma
MALME-3M melanoma = test system: MALME-3M melanoma
MOLT-4 leukemia = test system: MOLT-4 leukemia
NCI-H226 lung = test system: NCI-H226 lung
NCI-H23 lung = test system: NCI-H23 lung
NCI-H460 lung = test system: NCI-H460 lung
NCI-H522 lung = test system: NCI-H522 lung
OVCAR-3 ovarian = test system: OVCAR-3 ovarian
OVCAR-4 ovarian = test system: OVCAR-4 ovarian
OVCAR-5 ovarian = test system: OVCAR-5 ovarian
OVCAR-8 ovarian = test system: OVCAR-8 ovarian
RPMI-8226 leukemia = test system: RPMI-8226 leukemia
RXF 393 renal = test system: RXF 393 renal
SF-268 CNS = test system: SF-268 CNS
SF-295 CNS = test system: SF-295 CNS
SF-539 CNS = test system: SF-539 CNS
SK-MEL-2 melanoma = test system: SK-MEL-2 melanoma
SK-MEL-28 melanoma = test system: SK-MEL-28 melanoma
SK-MEL-5 melanoma = test system: SK-MEL-5 melanoma
SK-OV-3 ovarian = test system: SK-OV-3 ovarian
SN12C renal = test system: SN12C renal
SNB-75 CNS = test system: SNB-75 CNS
SNB-78 CNS = test system: SNB-78 CNS
SR leukemia = test system: SR leukemia
SW-620 colon = test system: SW-620 colon
TK-10 renal = test system: TK-10 renal
UACC-257 melanoma = test system: UACC-257 melanoma
UACC-62 melanoma = test system: UACC-62 melanoma
UO-31 renal = test system: UO-31 renal
XF 498 CNS = test system: XF 498 CNS

## COc1ccc(C(=O)C(c2ccc(OC)cc2)C2C(=O)Oc3ccccc32)cc1 (stereo unspecified)
786-0 renal
  GI50: > 100 µM
  TGI: > 100 µM
A498 renal
  GI50: > 100 µM
  TGI: > 100 µM
A549 NSCLC
  GI50: > 100 µM
  TGI: > 100 µM
ACHN renal
  GI50: > 100 µM
  TGI: > 100 µM
CCRF-CEM leukemia
  GI50: > 100 µM
  TGI: > 100 µM
COLO 205 colon
  GI50: > 100 µM
  TGI: > 100 µM
DLD-1 colon
  GI50: > 100 µM
  TGI: > 100 µM
DMS 114 small cell lung
  GI50: > 100 µM
  TGI: > 100 µM
DMS 273 small cell lung
  GI50: > 100 µM
  TGI: > 100 µM
EKVX NSCLC
  GI50: > 100 µM
  TGI: > 100 µM
HCC-2998 colon
  GI50: > 100 µM
  TGI: > 100 µM
HCT-116 colon
  GI50: > 100 µM
  TGI: > 100 µM
HCT-15 colon
  GI50: > 100 µM
  TGI: > 100 µM
HOP-18 NSCLC
  TGI: > 100 µM
HOP-92 NSCLC
  GI50: > 100 µM
  TGI: > 100 µM
HT29 colon
  GI50: > 100 µM
  TGI: > 100 µM
IGROV1 ovarian
  GI50: > 100 µM
  TGI: > 100 µM
K-562 leukemia
  GI50: > 100 µM
  TGI: > 100 µM
KM12 colon
  GI50: > 100 µM
  TGI: > 100 µM
KM20L2 colon
  GI50: > 100 µM
  TGI: > 100 µM
LXFL 529 NSCLC
  GI50: > 100 µM
  TGI: > 100 µM
M14 melanoma
  GI50: > 100 µM
  TGI: > 100 µM
M19-MEL melanoma
  GI50: > 100 µM
  TGI: > 100 µM
MALME-3M melanoma
  GI50: > 100 µM
  TGI: > 100 µM
MOLT-4 leukemia
  GI50: > 100 µM
  TGI: > 100 µM
NCI-H226 lung
  GI50: > 100 µM
  TGI: > 100 µM
NCI-H23 lung
  GI50: > 100 µM
  TGI: > 100 µM
NCI-H460 lung
  GI50: > 100 µM
  TGI: > 100 µM
NCI-H522 lung
  GI50: > 100 µM
  TGI: > 100 µM
OVCAR-3 ovarian
  GI50: > 100 µM
  TGI: > 100 µM
OVCAR-4 ovarian
  GI50: > 100 µM
  TGI: > 100 µM
OVCAR-5 ovarian
  GI50: > 100 µM
  TGI: > 100 µM
OVCAR-8 ovarian
  GI50: > 100 µM
  TGI: > 100 µM
RPMI-8226 leukemia
  GI50: > 100 µM
  TGI: > 100 µM
RXF 393 renal
  GI50: > 100 µM
  TGI: > 100 µM
SF-268 CNS
  GI50: > 100 µM
  TGI: > 100 µM
SF-295 CNS
  GI50: > 100 µM
  TGI: > 100 µM
SF-539 CNS
  GI50: > 100 µM
  TGI: > 100 µM
SK-MEL-2 melanoma
  GI50: > 100 µM
  TGI: > 100 µM
SK-MEL-28 melanoma
  GI50: > 100 µM
  TGI: > 100 µM
SK-MEL-5 melanoma
  GI50: > 100 µM
  TGI: > 100 µM
SK-OV-3 ovarian
  GI50: > 100 µM
  TGI: > 100 µM
SN12C renal
  GI50: > 100 µM
  TGI: > 100 µM
SNB-75 CNS
  GI50: > 100 µM
  TGI: > 100 µM
SNB-78 CNS
  TGI: > 100 µM
SR leukemia
  GI50: > 100 µM
  TGI: > 100 µM
SW-620 colon
  GI50: > 100 µM
  TGI: > 100 µM
TK-10 renal
  GI50: > 100 µM
  TGI: > 100 µM
UACC-257 melanoma
  GI50: > 100 µM
  TGI: > 100 µM
UACC-62 melanoma
  GI50: > 100 µM
  TGI: > 100 µM
UO-31 renal
  TGI: 51.1 µM
XF 498 CNS
  GI50: > 100 µM
  TGI: > 100 µM
